Experimental data published in patent US20110201603A1, “Novel Acylaminobenzamide Derivatives” (Bayer CropScience AG, priority 2008, published 2011).

How the values were obtained:
Assay type in all cases: in vivo
[1] = test system: mustard beetle larvae (Phaedon cochleariae); test: Phaedon cochleariae test (PHAECO spray application); conditions: application rate of 500 g/ha; Chinese cabbage leaf-disks; after 7 days
Method: Solvent: 78.0 parts by weight of acetone and 1.5 parts by weight of dimethylformamide
Emulsifier: 0.5 parts by weight of alkylaryl polyglycolether
To produce a suitable preparation of active compound, 1 part by weight of active compound is mixed with the stated amount of solvent and emulsifier, and the concentrate is diluted with emulsifier-containing water to the desired concentration. Chinese cabbage (Brassica pekinesis) leaf-disks are sprayed with a preparation of the active ingredient of the desired concentration. Once dry, the leaf disks are infested with mustard beetle larvae (Phaedon cochleariae). After 7 days mortality in % is determined. 100% means that all beetle larvae have been killed and 0% means that none of the beetle larvae have been killed.

[2] = test system: tobacco cutworm (Spodoptera litura) larvae; test: Test against tobacco cutworm (Spodoptera litura) larvae, leaf dip; conditions: active compound concentration of 100 ppm; third-instar larvae on sweet potato leaves; after 7 days
Summary of the method: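 Sweet potato leaves dipped in compound diluted in water (DMF solvent, polyoxyethylene alkyl phenyl ether emulsifier), air-dried, and given to ten third-instar larvae per dish at 25 °C, with fresh leaves on days 2 and 4. Mortality (%) scored after 7 days, averaged over two dishes.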

Lucilia cuprina larvae = test: Lucilia cuprina test; conditions: application rate of 100 ppm; larvae on minced horse meat; after 2 days
Method: (§1) Solvent: dimethyl sulfoxide
To produce a suitable preparation of active compound, 10 mg of active compound are dissolved in 0.5 ml solvent, and the concentrate is diluted with water to the desired concentration. Approximately 20-30 (Lucilia cuprina larvae) are transferred into a test tube containing 1 cm^3 of minced horse meat and 0.5 ml aqueous dilution of test compound. After 2 days mortality in % is determined. 100% means that all the larvae have been killed; 0% means that none of the larvae have been killed.

[3] = test system: cucurbit leaf beetle (Aulacophora femoralis); test: Test against cucurbit leaf beetle (Aulacophora femoralis), leaf dip; conditions: active compound concentration of 100 ppm; second-instar larvae on cucumber leaves; after 7 days
Summary of the method: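 Cucumber leaves dipped in compound solution (DMF solvent, polyoxyethylene alkyl phenyl ether emulsifier, water-diluted), air-dried, offered to five second-instar larvae on soil at 25° C. Mortality counted after 7 days, expressed as percent insecticidal activity.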

Ctenocephalides felis = Ctenocephalides felis test (CTECFE), blood feeding; conditions: application rate of 100 ppm in cattle blood; adult unfed fleas; after 2 days
Method: as §1
To produce a suitable preparation of active compound, 10 mg of active compound are dissolved in 0.5 ml solvent, and the concentrate is diluted with cattle blood to the desired concentration.
Approximately 10 to 15 adult unfed (Ctenocepahlides felis) are placed in flea chambers. The blood chamber, are sealed with paraffin on the bottom are filled with cattle blood supplied with compound solution and placed on top of the flea chamber, so that the fleas are able to suck the blood. The blood chamber is heated to 37° C. whereas the flea chamber is kept at room temperature. After 2 days mortality in % is determined. 100% means that all the fleas have been killed; 0% means that none of the fleas have been killed.

Musca domestica = Musca domestica test; conditions: application rate of 100 ppm; adults, sugar sponge; after 2 days
Method: as §1
To produce a suitable preparation of active compound, 10 mg of active compound are dissolved in 0.5 ml solvent, and the concentrate is diluted with water to the desired concentration. Prior to the assay, a piece or kitchen sponge is soaked with a mixture of sugar and compound solution and placed into a container. 10 adults (Musca domestica) are placed into the container and closed with a perforated lid. After 2 days mortality in % is determined. 100% means that all the flies have been killed; 0% means that none of the flies have been killed.

Boophilus microplus = Boophilus microplus test (injection); conditions: application rate of 20 μg/animal; injection into adult engorged female ticks; after 7 days
Method: as §1
To produce a suitable preparation of active compound, 10 mg of active compound are dissolved in 0.5 ml solvent, and the concentrate is diluted with solvent to the desired concentration. Five adult engorged female ticks (Boophilus microplus) are injected with compound solution into the abdomen. Ticks are transferred into replica plates and incubated in a climate chamber for a period of time. Egg deposition of fertile eggs is monitored. After 7 days mortality in % is determined. 100% means that all eggs are infertile; 0% means that all eggs are fertile.

## Cc1cc(C(n2nc(C)c(Br)c2C)C(F)(F)F)cc(C)c1NC(=O)c1cccc([N+](=O)[O-])c1 (racemic) [11-143]
[1]
  activity (mortality in %): 100%

## Cc1cc(C(n2cc(Cl)c(C(F)(F)C(F)(F)F)n2)(C(F)(F)F)C(F)(F)F)cc(C)c1NC(=O)c1cccc(NC(=O)c2cccnc2Cl)c1 [2-120]
[2]
  insecticidal activity: 100%
Lucilia cuprina larvae
  activity (mortality in %): 90%

## Cc1cc(C(n2cc(C(F)(F)F)cn2)C(F)(F)C(F)(F)F)cc(C)c1NC(=O)c1cccc(NC(=O)c2cccnc2Cl)c1 (stereo not drawn) [2-104]
[2]
  insecticidal activity: 100%
[3]
  insecticidal activity: 100%
Ctenocephalides felis
  activity (mortality in %): 100%
Lucilia cuprina larvae
  activity (mortality in %): 90%
Musca domestica
  activity (mortality in %): 80%

## CCc1cc(C(n2cc(C(F)(F)F)cn2)(C(F)(F)F)C(F)(F)F)cc(C)c1NC(=O)c1cccc(N)c1 [11-114]
Boophilus microplus
  activity (mortality in %; 100% means all eggs are infertile): 80%
